The results in this text go back to the OligoGym collection.

These antisense oligonucleotides have a phosphorothioate backbone; sugars and methylation of C are not fully specified.
Note: test concentration or dose not given here.

The first data set deals with CHEK2. The conditions noted are these: ASO.
ATTTCTGCTTAGTGACAGTG showed a remaining target (mRNA or protein) (fraction of control) of 0.65.
In turn, CAGAGTGAAAGAAGGACATT gave a remaining target (mRNA or protein) (fraction of control) of at least 1.
CAGTAGTTGTCATTCACACA: the remaining target (mRNA or protein) (fraction of control) was 0.49.
CAGTGTCCCAGAGCTGGAGT: the remaining target (mRNA or protein) (fraction of control) is at least 1.
Still for that read-out and setting: the result for CATGAGAGAGGTCTCTCCCA reads 0.85; that for CCACGGAGTTCACAACACAG, 0.74.
Regarding CCATCAATTCCAAAACAATA, the remaining target (mRNA or protein) (fraction of control) is at least 1.
In turn, CCATTGCCACTGTGATCTTC came in with a remaining target (mRNA or protein) (fraction of control) of 0.46.
Sequence CGTGCTGGTAGAGGAGCTGG yielded a remaining target (mRNA or protein) (fraction of control) of 0.77.
Still for that read-out and setting: in the case of CTCTCGAAAGCCAGCTTTAC it was 0.31; in that of CTTGGGACTGGGTAACGCTG, 0.93; in that of GAAGCCACGGGTGTCTTAAG, 0.86.
The same measure, in the same setting: the result for GACGGCGTTTTCCTTTCCCT reads 0.49; that for GACTTCAGGAATGAAGTTGT, at least 1; that for GAGAGCTGGGTCTGCCTCTC, 0.73.
As for GTACTGCACAGCCAAGAGCA, the remaining target (mRNA or protein) (fraction of control) amounted to 0.79.
GTAGAGCTGTGGATTCATTT had a remaining target (mRNA or protein) (fraction of control) of 0.67.
Consider TAATCTTTATAAGACAGTCC, for which the remaining target (mRNA or protein) (fraction of control) stood at 0.88.
TATTCATCTCTTAATGCCTT gave a remaining target (mRNA or protein) (fraction of control) of 0.61.
On the same count and under the same terms, the result for TATTCCATAATTAAATCCAA reads at least 1.
In turn, TCAGCAGTGGTTCATCAAAG displayed a remaining target (mRNA or protein) (fraction of control) of 0.63.
As for TCAGTGACACTTGAGTCCTA, the remaining target (mRNA or protein) (fraction of control) worked out at 0.87.
With TCCACAGCACGGTTATACCC, the remaining target (mRNA or protein) (fraction of control) was determined as 0.28.
In turn, TCCTTTTGCTGATGATCTTT yielded a remaining target (mRNA or protein) (fraction of control) of 0.57.
The sequence TGAGATGACAGTAAAACATT showed a remaining target (mRNA or protein) (fraction of control) of at least 1.
TGTTCAAACCACGGAGTTCA gave a remaining target (mRNA or protein) (fraction of control) of 0.62.
TTCTCTGAGACTTCTGCCCA yielded a remaining target (mRNA or protein) (fraction of control) of 0.49.
Sequence TTTATTCCCCACCACTTTGT yielded a remaining target (mRNA or protein) (fraction of control) of 0.38.
Sequence TTTGTGGTCTCGGCACCCTC yielded a remaining target (mRNA or protein) (fraction of control) of 0.77.
TTTTAATCTTGATGATGCAA gave a remaining target (mRNA or protein) (fraction of control) of 0.71.

For a further data set, the target named is IKBKB. Particulars: ASO.
On to AATGTCACTCAGCAAGGT, for which the remaining target (mRNA or protein) (fraction of control) was determined as 0.25.
In the case of ACTCAAAGGCCAGGGTGC, the remaining target (mRNA or protein) (fraction of control) came to 0.59.
In the case of ACTGGTTCAGGTACTTCC, the remaining target (mRNA or protein) (fraction of control) stood at 0.88.
Sequence ACTTCTGCTGCTCCAGTA gave a remaining target (mRNA or protein) (fraction of control) of 0.58.
The sequence AGGGTGCAGAGGTTATGT displayed a remaining target (mRNA or protein) (fraction of control) of 0.48.
For AGTTTATCTGATGTGATC, the remaining target (mRNA or protein) (fraction of control) stood at 0.8.
ATCCTAGGTCAATAATTT yielded a remaining target (mRNA or protein) (fraction of control) of 0.97.

A further data set deals with RHOG. Particulars: ASO.
For AAAAGGCATTCAGGGAAC, the remaining target (mRNA or protein) (fraction of control) is at least 1.
In turn, AAAGCGTTAGTTGTGTAG showed a remaining target (mRNA or protein) (fraction of control) of at least 1.
In the case of AACTGTGTGGAAAGCTGG, the remaining target (mRNA or protein) (fraction of control) turned out to be 0.92.
As for AAGAGGATGCAGGACCGC, the remaining target (mRNA or protein) (fraction of control) is 0.82.
As to ACACCATCCTGTTGCAGG, the remaining target (mRNA or protein) (fraction of control) stood at 0.77.
Regarding ACAGCCTCGGCGAACACT, the remaining target (mRNA or protein) (fraction of control) was 0.94.
Same read-out and setting: the result for ACATTCACCTTCTCAGGA reads 0.8; that for ACCACAATAGGCAGCAAC, 0.69.
In the case of ACCTCTGGATGCCACTTG, the remaining target (mRNA or protein) (fraction of control) is 0.65.
With ACGTTGGTCTGAGGGTAG, the remaining target (mRNA or protein) (fraction of control) stood at 0.62.
On to AGCTGGATGAACTGGTCA, for which the remaining target (mRNA or protein) (fraction of control) turned out to be 0.77.
AGGGCAGTGGTGGCACAC displayed a remaining target (mRNA or protein) (fraction of control) of 0.85.
Still for that read-out and setting: the result for CAATGGAGAAACAGATGA reads at least 1; that for CAATTCCAAGAGCAGCGA, 0.82.
As for CAGCAGGATGGGCACATC, the remaining target (mRNA or protein) (fraction of control) came to 0.8.
In turn, CATAGGACGGCGGACTGG showed a remaining target (mRNA or protein) (fraction of control) of 0.83.
Sequence CATTCGAGGTAGCGCACA registered a remaining target (mRNA or protein) (fraction of control) of 0.61.
In turn, CCACCACGCACTTGATGC registered a remaining target (mRNA or protein) (fraction of control) of 0.86.
For the sequence CCCTGCTGCGGTGTGATG, the remaining target (mRNA or protein) (fraction of control) is 0.56.
As to CGCACGTTCTCATAGGAC, the remaining target (mRNA or protein) (fraction of control) is 0.76.
Regarding CGCGAGTGCCTGGCCCTG, the remaining target (mRNA or protein) (fraction of control) turned out to be 0.91.
